Assay results taken from patent US8992985B2, “Core-shell magnetic particles and related methods” (priority 2010, dated 2015).
Where two headings read alike, the source gives them in different places.

Tests used:
[1] = in aquatic organisms; cited from earlier work
[2] = in human blood; cited from earlier work
[3] = system: Escherichia coli ATCC 11229; assay: Broth microdilution MIC assay; type: cell-based; conditions: E. coli (−); LB broth, 37° C
Source text: (§1) The following microorganisms were used (American Type Culture Collection (ATCC), Manassas, Vir., or La Colección Española de Cultivos Tipo (CECT), Valencia, Spain): Gram-positive bacteria Staphylococcus aureus ATCC 25923 and ATCC 6538, Staphylococcus epidermidis CECT 4184, Lactococcus lactis ATCC 7963, Streptococcus phocae ATCC51973, Lactococcus garvieae ATCC2155, Gram-negative bacteria Pseudomonas aeruginosa CECT 110 and ATCC 15692, Escherichia coli ATCC 11229, and Salmonella enterica ATCC 13311. The bacteria were grown at 37° C. in Luria-Bertani (LB) broth (Sigma-Aldrich Chemical Co.) (pH 7.3), which was also used for dilutions. The […] inhibitory concentration (MIC) values of PHMBG and the particles were determined in vitro using a broth microdilution assay. The polymer or nanoparticles were dissolved or dispersed, respectively, with brief sonication; into small stock samples of sterile deionized water (10 mL, 3 mg/mL). Serial dilutions between 5 and 300 mg/L final concentration in the liquid medium were dispensed into sterile 96-well polystyrene culture Corning® Costar® cell plates (Sigma-Aldrich Chemical Co.). The diluted samples were inoculated with a suspension of the test bacterium on the liquid medium to a final concentration of approximately 10^4 cfu/mL. The MIC was defined as the lowest concentration of PHMBG polymer, PHMBG-PEI-M or PHMBG-M/SiO2 particles that inhibited bacterial growth after […] at 37° C. Measurements were conducted in triplicate. The precision of the MIC values was limited by the dilution factor and was estimated to be ±5 mg/L, Negative control experiments were conducted with the dilutions without bactericidal additives and no reduction in bacterial counts after 24 h was observed.
(§2) For testing the antiseptic properties of the core-shell magnetic nanoparticles of the invention, five Gram-positive and three Gram-negative bacteria were chosen to represent a wide range of waterborne microorganisms, all of which are pathogenic with the exception of L. lactis, which is extensively used in buttermilk and cheese production. Gram-positive S. aureus and S. epidermidis are well-known human pathogens; S. phocae is a fish and seal pathogen; and L. garvieae causes septicemic infections of fish and is the main risk factor for the Mediterranean European trout industry. […] Both PHMBG-M/SiO2 (t) and PHMBG-M/SiO2 (s) particle species were tested, as well as PHMBG solutions and PHMBG-PEI-M particle suspensions.

[4] = system: Lactococcus garvieae ATCC2155; assay: Broth microdilution MIC assay; type: cell-based; conditions: L. garvieae (+); LB broth, 37° C
Source text: as §1, §2

[5] = system: Lactococcus lactis ATCC 7963; assay: Broth microdilution MIC assay; type: cell-based; conditions: L. lactis (+); LB broth, 37° C
Source text: as §1, §2

Pseudomonas aeruginosa = assay: Broth microdilution MIC assay; type: cell-based; conditions: P. aeruginosa (−); LB broth, 37° C
Source text: as §1, §2

[6] = system: Salmonella enterica ATCC 13311; assay: Broth microdilution MIC assay; type: cell-based; conditions: S. enterica (−); LB broth, 37° C
Source text: as §1, §2

Staphylococcus aureus = assay: Broth microdilution MIC assay; type: cell-based; conditions: S. aureus (+); LB broth, 37° C
Source text: as §1, §2

[7] = system: Staphylococcus epidermidis CECT 4184; assay: Broth microdilution MIC assay; type: cell-based; conditions: S. epidermidis (+); LB broth, 37° C
Source text: as §1, §2

[8] = system: Streptococcus phocae ATCC51973; assay: Broth microdilution MIC assay; type: cell-based; conditions: S. phocae (+); LB broth, 37° C
Source text: as §1, §2

Molecule	half-life [1]	half-life [2]	Minimum inhibitory concentrations (MIC) [3] [µg/mL]	Minimum inhibitory concentrations (MIC) [4] [µg/mL]	Minimum inhibitory concentrations (MIC) [5] [µg/mL]	Minimum inhibitory concentrations (MIC) (Pseudomonas aeruginosa) [µg/mL]	Minimum inhibitory concentrations (MIC) [6] [µg/mL]	Minimum inhibitory concentrations (MIC) (Staphylococcus aureus) [µg/mL]	Minimum inhibitory concentrations (MIC) [7] [µg/mL]	Minimum inhibitory concentrations (MIC) [8] [µg/mL]
[CH3][Hg][Cl] [methylmercury]	about 72 days	about 50 days								
Poly(hexamethylene biguanide) [PHMBG]			5	40	20	30	110	5	0.5	1.6
